# Results from patent US20160296499A1, “Spiroindoline Antiparasitic Derivatives” (ZOETIS SERVICES LLC, priority 2013, published 2016).
# Where two headings read alike, the source gives them in different places.
# Experiments:
# Haemonchus contortus L3 = test: Haemonchus contortus, Larvae Stage 3 (HcL3) In Vitro Assay; settings: Haemonchus contortus
# [1] = test system: Dirofilaria immitis microfilariae; test: Dirofilaria immitis, Microfilariae (DiMF) In Vitro Assay; settings: Dirofilaria immitis
# [2] = biological target: T1, bovine vesicular acetylcholine transporter (VAChT) (Bos taurus, UniProt E1BK36); test: Radioligand Binding Assay; settings: for Ki: Bovine binding Ki, CHO-K1 membranes with recombinant bovine VAChT, [3H]Compound X6 0.3 nM
# T1 sequence (E1BK36 1-524): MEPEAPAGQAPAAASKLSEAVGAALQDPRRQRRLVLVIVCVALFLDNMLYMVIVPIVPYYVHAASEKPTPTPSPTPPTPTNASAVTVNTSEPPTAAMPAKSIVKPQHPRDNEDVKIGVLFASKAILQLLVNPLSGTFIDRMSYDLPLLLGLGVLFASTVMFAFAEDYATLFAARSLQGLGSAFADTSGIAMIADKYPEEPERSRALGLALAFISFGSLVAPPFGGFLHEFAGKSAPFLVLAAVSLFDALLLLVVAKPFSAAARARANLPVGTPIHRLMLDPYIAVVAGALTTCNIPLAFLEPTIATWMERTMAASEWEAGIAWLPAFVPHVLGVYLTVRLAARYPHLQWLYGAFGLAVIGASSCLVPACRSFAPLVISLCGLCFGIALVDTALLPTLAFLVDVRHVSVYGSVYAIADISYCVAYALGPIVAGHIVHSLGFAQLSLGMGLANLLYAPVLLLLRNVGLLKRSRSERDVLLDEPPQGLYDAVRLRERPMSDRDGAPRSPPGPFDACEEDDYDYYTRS
# [3] = 96 h, read-out: HcL3 MEC, Minimal Effective Concentration whereby worm motility is inhibited by approximately 70%, 37° C., tested 0.001-100 μM
# [4] = 72 h, read-out: Di MF, MEC, decrease in microfilariae motility by visual assessment, curve starting at 100 μM
# [5] = 96 hours, 37° C., read-out: HcL3 MEC
Structure (SMILES),minimal effective concentration (Haemonchus contortus L3; [3]),"minimal effective concentration [1, 4]",Ki [2],Kd [2],minimal effective concentration (Haemonchus contortus L3; [5]),"minimal effective concentration ([1]; 72 hours, read-out: Di MF)"
"O=C(NCC1CCCO1)N1CC2(CCN(C/C=C/c3ccc(Cl)c(Cl)c3)CC2)c2c1ccc1scnc21 (racemic) [Example 34, (+/−)(E)-1-(3-(3,4-dichlorophenyl)allyl)-N-((tetrahydrofuran-2-yl)methyl)spiro[piperidine-4,8′-thiazolo[4,5-e]indole]-6′(7′H)-carboxamide]",100 µM,3.3 µM,0.467 µM,–,–,–
"O=C(NCC1CCOC1)N1CC2(CCN(C/C=C/c3ccc(Cl)c(Cl)c3)CC2)c2c1ccc1scnc21 (racemic) [Example 35, (+/−)(E)-1-(3-(3,4-dichlorophenyl)allyl)-N-((tetrahydrofuran-3-yl)methyl)spiro[piperidine-4,8′-thiazolo[4,5-e]indole]-6′(7′H)-carboxamide]",100 µM,3.3 µM,0.731 µM,–,–,–
"COc1ccc(/C=C/CN2CCC3(CC2)CN(C(=O)NCc2ccnc(Cl)c2)c2ccc(F)cc23)cc1 [Compound X6, reference compound]",–,–,–,0.0006 µM,–,–
"O=C(NCc1ccnc(Cl)c1)N1CC2(CCN(C/C=C/c3ccc(Cl)c(Cl)c3)CC2)c2cc3c(cc21)COC3 [Example 1, (E)-N-((2-chloropyridin-4-yl)methyl)-1′-(3-(3,4-dichlorophenyl)allyl)-5,7-dihydrospiro[furo[3,4-f]indole-3,4′-piperidine]-1(2H)-carboxamide]",1 µM,–,0.07 µM,–,–,–
"O=C(NCc1ccnc(F)c1)N1CC2(CCN(C/C=C/c3ccc(Cl)cc3)CC2)c2cc3c(cc21)COC3 [Example 2, (E)-1′-(3-(4-chlorophenyl)allyl)-N-((2-fluoropyridin-4-yl)methyl)-5,7-dihydrospiro[furo[3,4-f]indole-3,4′-piperidine]-1(2H)-carboxamide]",18.2 µM,10 µM,0.321 µM,–,–,–
"O=C(NCc1cnc(Cl)s1)N1CC2(CCN(C/C=C/c3ccc(Cl)cc3)CC2)c2cc3c(cc21)COC3 [Example 3, (E)-1′-(3-(4-chlorophenyl)allyl)-N-((2-chlorothiazol-5-yl)methyl)-5,7-dihydrospiro[furo[3,4-f]indole-3,4′-piperidine]-1(2H)-carboxamide]",–,–,0.0312 µM,–,3.3 µM,5.7 µM
"O=C(NCc1ccnc(Cl)c1)N1CC2(CCN(C/C=C/c3ccc(F)cc3)CC2)c2cc3c(cc21)COC3 [Example 4, (E)-N-((2-chloropyridin-4-yl)methyl)-1′-(3-(4-fluorophenyl)allyl)-5,7-dihydrospiro[furo[3,4-f]indole-3,4′-piperidine]-1(2H)-carboxamide]",–,–,0.0787 µM,–,10 µM,10 µM
"N#Cc1ccc(/C=C/CN2CCC3(CC2)CN(C(=O)NCc2ccnc(Cl)c2)c2cc4c(cc23)COC4)cc1 [Example 5, (E)-N-((2-chloropyridin-4-yl)methyl)-1′-(3-(4-cyanophenyl)allyl)-5,7-dihydrospiro[furo[3,4-f]indole-3,4′-piperidine]-1(2H)-carboxamide]",33 µM,10 µM,0.0701 µM,–,–,–
"O=C(NCc1ccnc(Cl)c1)N1CC2(CCN(C/C=C/c3ccc(Cl)cc3)CC2)c2cc3c(cc21)OCO3 [Example 6, (E)-1-(3-(4-chlorophenyl)allyl)-N-((2-chloropyridin-4-yl)methyl)spiro[piperidine-4,7′-[1,3]dioxolo[4,5-f]indole]-5′(6′H)-carboxamide]",–,–,0.0354 µM,–,3.3 µM,10 µM
"CC1(C)Oc2cc3c(cc2O1)C1(CCN(C/C=C/c2ccc(Cl)c(Cl)c2)CC1)CN3C(=O)NCc1ccnc(Cl)c1 [Example 7, (E)-N-((2-chloropyridin-4-yl)methyl)-1-(3-(3,4-dichlorophenyl)allyl)-2′,2′-dimethylspiro[piperidine-4,7′-[1,3]dioxolo[4,5-f]indole]-5′(6′H)-carboxamide]",–,–,0.516 µM,–,100 µM,10 µM
"CC1(C)Oc2cc3c(cc2O1)C1(CCN(C/C=C/c2ccc(Cl)cc2)CC1)CN3C(=O)NCc1ccnc(Cl)c1 [Example 8, (E)-1-(3-(4-chlorophenyl)allyl)-N-((2-chloropyridin-4-yl)methyl)-2′,2′-dimethylspiro[piperidine-4,7′-[1,3]dioxolo[4,5-f]indole]-5′(6′H)-carboxamide]",–,–,1.52 µM,–,100 µM,10 µM
"O=C(NCc1ccnc(Cl)c1)N1CC2(CCN(C/C=C/c3ccc(Cl)c(Cl)c3)CC2)c2cc3c(cc21)OCCO3 [Example 9, (E)-N-((2-chloropyridin-4-yl)methyl)-1-(3-(3,4-dichlorophenyl)allyl)-2′,3′-dihydrospiro[piperidine-4,8′-[1,4]dioxino[2,3-f]indole]-6′(7′H)-carboxamide]",33 µM,10 µM,0.0628 µM,–,–,–
"O=C(NCc1ccnc(Cl)c1)N1CC2(CCN(C/C=C/c3ccc(Cl)c(Cl)c3)CC2)c2c1ccc1c2OCCO1 [Example 11, (E)-N-((2-chloropyridin-4-yl)methyl)-1-(3-(3,4-dichlorophenyl)allyl)-2′,3′-dihydrospiro[piperidine-4,9′-[1,4]dioxino[2,3-e]indole]-7′(8′H)-carboxamide]",100 µM,10 µM,0.178 µM,–,–,–
"O=C(NCc1ccnc(Cl)c1)N1CC2(CCN(C/C=C/c3ccc(Cl)c(Cl)c3)CC2)c2cc3c(cc21)CCC3 [Example 12, (E)-N-((2-chloropyridin-4-yl)methyl)-1′-(3-(3,4-dichlorophenyl)allyl)-2,5,6,7-tetrahydro-1H-spiro[cyclopenta[f]indole-3,4′-piperidine]-1-carboxamide]",–,–,0.0563 µM,–,2.2 µM,10 µM
"O=C(NCc1ccncc1)N1CC2(CCN(C/C=C/c3ccc(Cl)c(Cl)c3)CC2)c2c1ccc1scnc21 [Example 13, (E)-1-(3-(3,4-dichlorophenyl)allyl)-N-(pyridin-4-ylmethyl)spiro[piperidine-4,8′-thiazolo[4,5-e]indole]-6′(7′H)-carboxamide]",100 µM,10 µM,0.379 µM,–,–,–
"O=C(NCc1ncccn1)N1CC2(CCN(C/C=C/c3ccc(Cl)c(Cl)c3)CC2)c2c1ccc1scnc21 [Example 14, (E)-1-(3-(3,4-dichlorophenyl)allyl)-N-(pyrimidin-2-ylmethyl)spiro[piperidine-4,8′-thiazolo[4,5-e]indole]-6′(7′H)-carboxamide]",100 µM,10 µM,0.721 µM,–,–,–
"O=C(NCc1ccccc1)N1CC2(CCN(C/C=C/c3ccc(Cl)c(Cl)c3)CC2)c2c1ccc1scnc21 [Example 15, (E)-N-benzyl-1-(3-(3,4-dichlorophenyl)allyl)spiro[piperidine-4,8′-thiazolo[4,5-e]indole]-6′(7′H)-carboxamide]",100 µM,4.4 µM,0.61 µM,–,–,–
"O=C(NCc1ccc(F)cc1)N1CC2(CCN(C/C=C/c3ccc(Cl)c(Cl)c3)CC2)c2c1ccc1scnc21 [Example 16, (E)-1-(3-(3,4-dichlorophenyl)allyl)-N-(4-fluorobenzyl)spiro[piperidine-4,8′-thiazolo[4,5-e]indole]-6′(7′H)-carboxamide]",100 µM,3.3 µM,7.34 µM,–,–,–
"O=C(NCc1ccc([N+](=O)[O-])cc1)N1CC2(CCN(C/C=C/c3ccc(Cl)c(Cl)c3)CC2)c2c1ccc1scnc21 [Example 17, (E)-1-(3-(3,4-dichlorophenyl)allyl)-N-(4-nitrobenzyl)spiro[piperidine-4,8′-thiazolo[4,5-e]indole]-6′(7′H)-carboxamide]",100 µM,10 µM,11.6 µM,–,–,–
"O=C(NCc1ccc(O)cc1)N1CC2(CCN(C/C=C/c3ccc(Cl)c(Cl)c3)CC2)c2c1ccc1scnc21 [Example 18, (E)-1-(3-(3,4-dichlorophenyl)allyl)-N-(4-hydroxybenzyl)spiro[piperidine-4,8′-thiazolo[4,5-e]indole]-6′(7′H)-carboxamide]",100 µM,43.5 µM,2.22 µM,–,–,–
"COc1nc2ccccc2cc1CN1CCC2(CC1)CN(C(=O)NCc1ccnc(Cl)c1)c1ccc(Cl)cc12 [Example 134, 5-chloro-N-((2-chloropyridin-4-yl)methyl)-1′-((2-methoxyquinolin-3-yl)methyl)spiro[indoline-3,4′-piperidine]-1-carboxamide]",–,–,0.0349 µM,–,2 µM,–
"CN(Cc1ccnc(Cl)c1)C(=O)N1CC2(CCN(C/C=C/c3ccc(Cl)cc3)CC2)c2cc(Cl)ccc21 [Example 188, (E)-5-chloro-1′-(3-(4-chlorophenyl)allyl)-N-((2-chloropyridin-4-yl)methyl)-N-methylspiro[indoline-3,4′-piperidine]-1-carboxamide]",2 µM,–,0.172 µM,–,–,–
